The values that follow come from PMC9740255 (Cells, 2022).

Molecules are shown by their SMILES. Read-outs that look alike come from different tables or passages of the source.

The test system of assay [1] is dDAT stably transfected into MDCK cells. Further details: method as in ref 25 (Pörzgen et al. 2001). As to conditions: uptake inhibition of [3H]dopamine, ref 25 (Pörzgen et al. 2001); cited from earlier work.
The target in assay [2] is T1, purified, full length dDAT (Drosophila melanogaster, UniProt Q7K4Y6).
T1 construct: Full length dDAT with a C-terminal thrombin cleavage site followed by a His8-tag; made in house; host or cells: Expi293F suspension cells transduced with BacMam baculovirus (virus produced in Sf9)
T1 sequence (Q7K4Y6 whole entry): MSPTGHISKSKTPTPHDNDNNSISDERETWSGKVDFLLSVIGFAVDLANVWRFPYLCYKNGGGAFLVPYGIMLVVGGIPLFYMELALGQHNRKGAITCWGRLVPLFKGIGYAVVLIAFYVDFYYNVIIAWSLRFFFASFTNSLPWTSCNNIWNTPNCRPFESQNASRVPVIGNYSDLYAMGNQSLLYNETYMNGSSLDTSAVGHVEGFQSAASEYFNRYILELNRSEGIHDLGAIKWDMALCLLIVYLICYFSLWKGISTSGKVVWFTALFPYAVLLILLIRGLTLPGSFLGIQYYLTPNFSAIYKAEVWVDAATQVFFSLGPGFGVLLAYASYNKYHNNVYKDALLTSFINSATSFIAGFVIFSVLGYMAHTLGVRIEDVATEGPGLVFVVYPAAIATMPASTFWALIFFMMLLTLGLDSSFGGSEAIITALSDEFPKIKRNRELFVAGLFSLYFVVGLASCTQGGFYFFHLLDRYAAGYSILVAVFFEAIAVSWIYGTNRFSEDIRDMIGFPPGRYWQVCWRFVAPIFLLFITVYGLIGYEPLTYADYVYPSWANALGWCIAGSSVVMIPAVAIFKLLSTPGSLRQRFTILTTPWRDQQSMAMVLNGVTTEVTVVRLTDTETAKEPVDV
Briefly: Competitive inhibition of [3H]nisoxetine binding to purified dDAT by scintillation proximity assay (SPA). On the procedure:
(§1) Binding of substrates and inhibitors to purified dDAT was assessed through saturation and competition binding by scintillation proximity assay (SPA).
(§2) This mixture was incubated on rotation for 45 min in darkness at 4 °C. The dDAT-SPA buffer mixture was added to the wells along with 100 nM of the desired tritiated ligand (often at 10% specific activity) and the dilution series of the unlabelled competitor. […] The plates were sealed, mixed at RT for 1.5 h on an agitator and left to settle at RT for 30 min. […] Plates were stored at 4 °C overnight and recounted to ensure that the original data was obtained at equilibrium. All experiments were performed in triplicates.
(§3) All statistical tests and data analyses were performed in GraphPad Prism 9 (GraphPad Software, Prism 9 version 9.2.0, San Diego, CA, USA). Unless otherwise specified, all data points are given as mean ± SEM (standard error of the mean) or mean [SEM interval]. Data obtained from competition binding analyses were fitted as a non-linear regression (curve fit) through an inhibitory dose–response model (variable slope), otherwise known as a four-parameter logistic equation. The non-specific binding condition was subtracted before fitting the data. From the logIC50, the IC50 can be obtained and, therefore, the affinity (Ki) derived through the Cheng-Prusoff equation. For homologous competitive binding, whereby the same compound is used as both the labelled and unlabelled ligand, the Cheng-Prusoff equation can be converted to obtain the Kd. Data plotted as a percentage of the control (absence of the competitive ligand) unless otherwise stated, i.e., normalized to the Bmax determined from the sigmoidal fit. Saturation binding data were fitted after subtracting the non-specific binding from each condition. The data were fitted as a non-linear regression (curve fit) through a sigmoidal dose–response (variable slope) model to determine the Kd. Ion binding study data were plotted using the same four-parameter logistic equation. […] The saturation curves on each plate were fitted with a globally shared Bmax value to enable estimation of low affinity constants.

Assay [3] has as its target hNET. Further details: method as in ref 35 (Owens et al. 2001). As to conditions: footnote e: hNET in HEK293 cells, [3H]nisoxetine; ref 35 (Owens et al. 2001); read-out: NET Ki; cited from earlier work.
The target in assay [4] is hDAT. Further details: method as in ref 35 (Owens et al. 2001). Particulars: footnote e: hDAT in HEK293 cells, [125I]RTI-55; ref 35 (Owens et al. 2001); read-out: DAT Ki; cited from earlier work.
Assay [5] has as its target T2, dDAT expressed in COS-7 cells (Drosophila melanogaster, UniProt Q7K4Y6).
T2 construct: Full length dDAT with a C-terminal thrombin cleavage site followed by a His8-tag; expressed in transfected cells; host or cells: COS-7 cells, transient transfection
Briefly: Competition binding of [3H]nisoxetine in COS-7 cells expressing dDAT. How it is done:
(§4) COS-7 cells (a generous gift from Prof. U. Gether, Univ. of Copenhagen) were transiently transfected in Opti-MEM media (ThermoFisher Scientific, Waltham, MA, USA) using lipofectamine 3000 (ThermoFisher Scientific, Waltham, MA, USA) with 0.36 µg hDAT in the pcDNA3.1 vector, 0.36–0.47 µg hNET in the pcDNA3.1 vector or 0.83–1.6 µg dDAT in pEG BacMam vector per 10^6 cells, in a lipofectamine:DNA (w/w) ratio of 3.5. Cells were seeded in 24-well plates (5 × 10^4/well) coated with poly-ornithine and incubated in 10% CO2 at 37 °C in DMEM media supplemented with 1% FBS.
(§5) Competition binding assays were performed directly in the culture dish 48 h after transfection of the cells. The competition binding experiments were carried out at room temperature (RT). […] All experiments were performed in triplicates.
as §3

In assay [6] the target is T3, hNET expressed in COS-7 cells (Homo sapiens, UniProt P23975).
T3 construct: expressed in transfected cells; host or cells: COS-7 cells, transient transfection
T3 sequence (P23975 whole entry): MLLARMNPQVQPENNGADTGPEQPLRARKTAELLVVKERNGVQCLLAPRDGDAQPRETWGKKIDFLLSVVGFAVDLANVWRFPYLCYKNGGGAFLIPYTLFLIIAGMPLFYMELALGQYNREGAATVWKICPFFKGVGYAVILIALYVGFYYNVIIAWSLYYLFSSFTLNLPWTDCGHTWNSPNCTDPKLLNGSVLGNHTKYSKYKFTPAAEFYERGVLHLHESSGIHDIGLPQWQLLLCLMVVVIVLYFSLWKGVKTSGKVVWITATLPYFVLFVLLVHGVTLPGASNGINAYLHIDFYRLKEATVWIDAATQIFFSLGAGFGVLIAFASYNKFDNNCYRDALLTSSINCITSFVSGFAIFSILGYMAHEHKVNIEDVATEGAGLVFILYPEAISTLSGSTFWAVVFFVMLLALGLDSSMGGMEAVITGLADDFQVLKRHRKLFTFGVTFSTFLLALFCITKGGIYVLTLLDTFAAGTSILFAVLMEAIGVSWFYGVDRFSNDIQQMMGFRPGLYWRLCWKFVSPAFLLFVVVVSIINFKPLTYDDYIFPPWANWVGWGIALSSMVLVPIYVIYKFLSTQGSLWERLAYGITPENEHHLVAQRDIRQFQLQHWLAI
Briefly: Competition binding of [3H]nisoxetine in COS-7 cells expressing hNET. As to conditions: hNET in COS-7 cells; competitive inhibition of [3H]nisoxetine binding; mean [SEM interval]; read-out: NET Ki. On the procedure: as §5
(§6) All statistical tests and data analyses were performed in GraphPad Prism 9 (GraphPad Software, Prism 9 version 9.2.0, San Diego, CA, USA). Unless otherwise specified, all data points are given as mean ± SEM (standard error of the mean) or mean [SEM interval]. Data obtained from competition binding analyses were fitted as a non-linear regression (curve fit) through an inhibitory dose–response model (variable slope), otherwise known as a four-parameter logistic equation. The non-specific binding condition was subtracted before fitting the data. From the logIC50, the IC50 can be obtained and, therefore, the affinity (Ki) derived through the Cheng-Prusoff equation. For homologous competitive binding, whereby the same compound is used as both the labelled and unlabelled ligand, the Cheng-Prusoff equation can be converted to obtain the Kd. Data plotted as a percentage of the control (absence of the competitive ligand) unless otherwise stated, i.e., normalized to the Bmax determined from the sigmoidal fit. Saturation binding data were fitted after subtracting the non-specific binding from each condition. […]

For assay [7], the target named is T4, purified dDAT (dDAT-His8) (Drosophila melanogaster, UniProt Q7K4Y6).
T4 construct: Full length dDAT with a C-terminal thrombin cleavage site followed by a His8-tag; made in house; host or cells: Expi293F suspension cells transduced with BacMam baculovirus (virus produced in Sf9)
T4 sequence (Q7K4Y6 whole entry): as the sequence (Q7K4Y6 whole entry) above
Kind of assay: Saturation binding of [3H]nisoxetine to purified dDAT (SPA). How it is done:
as §1
All experiments were performed in triplicates.
as §6

The target in assay [8] is T5, hDAT expressed in COS-7 cells (Homo sapiens, UniProt Q01959).
T5 construct: expressed in transfected cells; host or cells: COS-7 cells, transient transfection
T5 sequence (Q01959 whole entry): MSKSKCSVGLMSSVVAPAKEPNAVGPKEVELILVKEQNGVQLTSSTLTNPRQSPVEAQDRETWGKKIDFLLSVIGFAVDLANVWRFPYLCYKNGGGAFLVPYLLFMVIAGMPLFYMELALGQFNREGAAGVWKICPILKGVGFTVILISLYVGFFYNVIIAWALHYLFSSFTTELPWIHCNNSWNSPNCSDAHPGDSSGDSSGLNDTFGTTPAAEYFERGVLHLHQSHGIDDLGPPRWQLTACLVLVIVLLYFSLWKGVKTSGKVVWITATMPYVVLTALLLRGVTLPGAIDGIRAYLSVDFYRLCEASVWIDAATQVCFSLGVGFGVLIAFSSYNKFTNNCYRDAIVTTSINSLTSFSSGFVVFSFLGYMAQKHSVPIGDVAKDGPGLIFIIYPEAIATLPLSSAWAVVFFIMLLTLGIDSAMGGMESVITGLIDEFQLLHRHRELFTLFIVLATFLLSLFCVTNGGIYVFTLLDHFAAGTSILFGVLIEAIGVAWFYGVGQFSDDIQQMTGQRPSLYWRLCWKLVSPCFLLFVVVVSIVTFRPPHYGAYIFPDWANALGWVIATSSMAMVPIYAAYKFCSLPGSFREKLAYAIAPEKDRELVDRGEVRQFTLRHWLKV
Kind of assay: Competition binding of [3H]CFT in COS-7 cells expressing hDAT. As to conditions: hDAT in COS-7 cells; competitive inhibition of [3H]CFT binding; mean [SEM interval]; read-out: DAT Ki. On the procedure: as §4, §5
All statistical tests and data analyses were performed in GraphPad Prism 9 (GraphPad Software, Prism 9 version 9.2.0, San Diego, CA, USA). Unless otherwise specified, all data points are given as mean ± SEM (standard error of the mean) or mean [SEM interval]. […] Data plotted as a percentage of the control (absence of the competitive ligand) unless otherwise stated, i.e., normalized to the Bmax determined from the sigmoidal fit. […]

The next assay deals with DAT. Further details: method as in ref 34 (Cao et al. 2016). As to conditions: footnote d: rat caudate putamen membranes, [3H]CFT; ref 34 (Cao et al. 2016); cited from earlier work.
In assay [9] the target is hDAT. Particulars: read-out: DAT Ki; footnote a: hDAT in HEK293 cells, [3H]CFT; ref 32 (Tatsumi et al. 1997); cited from earlier work.
Assay [10] addresses hNET. Further details: method as in ref 32 (Tatsumi et al. 1997). Particulars: footnote a: hNET in HEK293 cells, [3H]nisoxetine; ref 32 (Tatsumi et al. 1997); read-out: NET Ki; cited from earlier work.
The next assay has as its target NET. Further details: method as in ref 33 (Agoston et al. 1997). As to conditions: footnote c: [3H]unknown ligand for NET; ref 33 (Agoston et al. 1997); cited from earlier work.
Assay [11] has as its target T4, purified dDAT (dDAT-His8). Kind of assay: Homologous competitive [3H]mazindol binding to purified dDAT (SPA). How it is done:
as §1, §2
as §6, with “condition. The data were fitted as a non-linear regression (curve fit) through a sigmoidal dose–response (variable slope) model to determine the Kd. Ion binding study data were plotted using the same four-parameter logistic equation.” for “condition.”

The mark [12] stands for this setting: dDAT in COS-7 cells, competitive inhibition of [3H]nisoxetine binding, mean [SEM interval].

T2 sequence (Q7K4Y6 whole entry): as the sequence (Q7K4Y6 whole entry) above

With `CN(C)CCCN1c2ccccc2CCc2ccccc21` [Imipramine], the IC50 in assay [1] is 30 ± 10 nM.
On to `CN(C)CCC[C@@]1(c2ccc(F)cc2)OCc2cc(C#N)ccc21` [S-citalopram], for which the Ki is 24000 nM in assay [2] (read-out: dDAT Ki), 7840 ± 998 nM at hNET [3] and 27400 ± 3110 nM at hDAT [4]. For the same molecule, the IC50 in [1] is 8100 ± 2100 nM.
In the case of `COC(=O)[C@H]1[C@@H](c2ccc(F)cc2)C[C@@H]2CC[C@H]1N2C` [CFT], the Ki is 25000 nM in [2] (read-out: dDAT Ki), 3900 nM in [5] (setting [12]) and 357 nM in [6].
Turning to `CNCCC(Oc1ccccc1OC)c1ccccc1` (stereo not drawn) [Nisoxetine], the Kd in assay [5] came out at 70 nM; in [7] it was 31 nM. Moreover, the IC50 in assay [1] was 5.6 ± 2.2 nM.
For `C[C@H](N)Cc1ccccc1` [D-amphetamine], in assay [2] (read-out: dDAT Ki), the Ki is 18000 nM. In addition, the IC50 in assay [1] was 6600 ± 900 nM.
`NC(=O)C[S+]([O-])C(c1ccccc1)c1ccccc1` (stereo not drawn) [Modafinil]: in assay [2] (read-out: dDAT Ki), the Ki turned out to be 554000 nM.
As to `COC(=O)[C@H]1C(c2ccc(I)cc2)C[C@@H]2CC[C@H]1N2C` (stereo partly drawn) [RTI-55], the Ki was 130 nM in assay [2] (read-out: dDAT Ki), 0.5 nM in assay [8], 299 nM in [5] (setting [12]) and 4 nM in [6]. For the same molecule, in [1], the IC50 was 66 ± 10 nM.
Take `[O-][S+](CCN1CCN(CC(O)Cc2ccccc2)CC1)C(c1ccc(F)cc1)c1ccc(F)cc1` (stereo not drawn) [JJC8-088]: the results for the Ki (in [2] (read-out: dDAT Ki); on DAT) were 33000 nM and 2.53 ± 0.25 nM, respectively.
With `CN[C@@H](C)Cc1ccccc1` [Methamphetamine], the results for the inhibition constant Ki (in assay [2] (read-out: dDAT Ki); at hDAT [9]; at hNET [10]) were 13000 nM, 2800 ± 100 nM and 660 ± 20 nM, respectively.
Consider `NC[C@H](O)c1ccc(O)c(O)c1` [Norepinephrine], for which the Ki was 184000 nM in assay [2] (read-out: dDAT Ki) and 68000 nM in [5]. For the same molecule, the IC50 in assay [1] was 49000 ± 9000 nM.
As for `COC(=O)[C@H]1[C@@H](OC(=O)c2ccccc2)C[C@@H]2CC[C@H]1N2C` [Cocaine], the Ki in assay [2] (read-out: dDAT Ki) was 20000 nM; at hNET [10], 1420 ± 50 nM. For the same molecule, the IC50 in [1] was 2660 ± 230 nM.
With `NCCc1ccc(O)c(O)c1` [Dopamine], in assay [1], the IC50 is 2900 ± 500 nM.
In the case of `CCCCN1[C@@H]2CC[C@H]1CC(OC(c1ccc(F)cc1)c1ccc(F)cc1)C2` (stereo partly drawn) [JHW007], the Ki is 3100 nM in [2] (read-out: dDAT Ki) and 1330 nM on NET.
Consider `Fc1ccc([C@@H]2CCNC[C@H]2COc2ccc3c(c2)OCO3)cc1` [Paroxetine], for which the Ki in assay [2] (read-out: dDAT Ki) turned out to be 322 nM. Moreover, the IC50 in assay [1] is 22 ± 4 nM.
As for `CC(NC(C)(C)C)C(=O)c1cccc(Cl)c1` (stereo not drawn) [Bupropion], the Ki in assay [2] (read-out: dDAT Ki) was 7500 nM. Besides, the IC50 in assay [1] is 48000 ± 5000 nM.
Turning to `NCCc1c[nH]c2ccc(O)cc12` [Serotonin], the Ki in [2] (read-out: dDAT Ki) is 173000 nM; on hDAT [9], greater than 100000 nM; on hNET [10], greater than 100000 nM. In addition, the IC50 in [1] was 43000 ± 7000 nM.
With `CNCCC=C1c2ccccc2CCc2ccccc21` [Nortriptyline], at hDAT [9], the Ki was 1140 ± 30 nM.
Regarding `CC(O)CN1CCN(CC[S+]([O-])C(c2ccc(F)cc2)c2ccc(F)cc2)CC1` (stereo not drawn) [JJC8-091], the Ki in assay [2] (read-out: dDAT Ki) came out at 199000 nM.
In the case of `CN(C)CCC=C1c2ccccc2CCc2ccccc21` [Amitriptyline], the Ki in assay [2] (read-out: dDAT Ki) was 97 nM; on hDAT [9] it was 3250 ± 20 nM. Besides, in assay [1], the IC50 is 30 ± 1 nM.
Turning to `OC1(c2ccc(Cl)cc2)c2ccccc2C2=NCCN21` (stereo not drawn) [Mazindol], the Ki in assay [2] (Ki, first (higher affinity) binding population of biphasic curve, [3H]nisoxetine displacement, T = 2 h at RT, two-site fit, representative dataset, estimated) was 0.2 nM; in assay [2] (read-out: Ki, second (lower affinity) binding population of biphasic curve, [3H]nisoxetine displacement, T = 2 h at RT, two-site fit, representative dataset, estimated), 402 nM; in assay [2] (read-out: dDAT Ki), 2800 nM; at hNET [10] it was 0.45 ± 0.03 nM. The IC50 in [11] is 25 nM; in assay [11] (read-out: IC50, second (lower affinity) binding population of biphasic curve, homologous [3H]mazindol competition, biphasic dataset T = 16 h, two-site fit, estimated), 79000 nM; in [1], 4.4 ± 2.2 nM. Besides, the Kd in assay [11] stood at 13000 nM.
